Tests used:
Assay in all cases: relative viability (nuclei count vs DMSO), 5 days (fraction); higher = more cells survive
[1] = compound: C#Cc1cccc(Nc2ncnc3cc(OC)c(OCCCCCCC(=O)NO)cc23)c1 [CUDC-101] + CC1(C)CCC(c2ccc(Cl)cc2)=C(CN2CCN(c3ccc(C(=O)NS(=O)(=O)c4ccc(N[C@H](CCN5CCOCC5)CSc5ccccc5)c(S(=O)(=O)C(F)(F)F)c4)cc3)CC2)C1 [Navitoclax] (partner 0.5 µM)
How it was run: (§1)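 Lung cancer cell lines were pin-tool dosed in 1536-well plates on the day after seeding, with either a lone drug or a fixed anchor-drug dose plus five library-drug doses (not always all listed) in √10 steps. Nuclei were counted on 4× images after 5 days. Relative viability is the ratio of treated-well to vehicle-well nuclei counts, with each value a median of duplicate plates.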

[2] = compound: COc1cc(N2CCC(N3CCN(C)CC3)CC2)ccc1Nc1ncc(Cl)c(Nc2ccccc2S(=O)(=O)C(C)C)n1 [NVP-TAE684] + Cc1nc(Nc2ncc(C(=O)Nc3c(C)cccc3Cl)s2)cc(N2CCN(CCO)CC2)n1 [Dasatinib] (partner 0.075 µM)
How it was run: as §1

[3] = compound: C1=CC=C2C(=C1)N=C(S2)C(C#N)C3=NC(=NC=C3)NCCC4=CN=CC=C4 + CC(=O)c1c(C)c2cnc(Nc3ccc(N4CCNCC4)cn3)nc2n(C2CCCC2)c1=O [Palbociclib] (partner 0.5 µM)
How it was run: as §1

[4] = compound: C1=CC=C2C(=C1)N=C(S2)C(C#N)C3=NC(=NC=C3)NCCC4=CN=CC=C4 + C[C@]1(O)C[C@@H](c2nc(-c3ccc4ccc(-c5ccccc5)nc4c3)c3c(N)nccn32)C1 [Linsitinib] (partner 1 µM)
How it was run: as §1

| Cell Line | relative viability ([1]; first compound 0.01 µM) | relative viability ([1]; first compound 0.03162 µM) | relative viability ([1]; first compound 0.1 µM) | relative viability ([1]; first compound 0.3162 µM) | relative viability ([1]; first compound 1 µM) | relative viability ([2]; first compound 0.2 µM) | relative viability ([2]; first compound 0.6325 µM) | relative viability ([2]; first compound 2 µM) | relative viability ([3]; first compound 0.005 µM) | relative viability ([3]; first compound 0.01581 µM) | relative viability ([3]; first compound 0.1581 µM) | relative viability ([3]; first compound 0.5 µM) | relative viability ([4]; first compound 0.005 µM) | relative viability ([4]; first compound 0.01581 µM) | relative viability ([4]; first compound 0.05 µM) | relative viability ([4]; first compound 0.1581 µM) | relative viability ([4]; first compound 0.5 µM) | relative viability ([3]; first compound 0.05 µM) |
| --- | --- | --- | --- | --- | --- | --- | --- | --- | --- | --- | --- | --- | --- | --- | --- | --- | --- | --- |
| LU99A | 0.857 | 1.07 | 0.728 | 0.642 | 0.159 | 0.475 | 0.392 | 0.179 | 0.398 | 0.41 | 0.47 | 0.39 | 0.517 | 0.517 | 0.553 | 0.611 | 0.553 |  |
| LXF-289 | 0.952 | 0.966 | 0.911 | 0.932 | 0.753 | 0.191 | 0.141 | 0.111 | 0.46 | 0.6 | 0.625 | 0.503 | 0.853 | 1.01 | 1.05 | 1.04 | 0.92 | 0.612 |
| NCI-H23 | 0.801 | 0.796 | 0.817 | 0.849 | 0.791 |  | 0.638 | 0.249 |  | 0.456 | 0.577 | 0.411 |  | 0.685 | 0.583 | 0.85 | 0.533 | 0.528 |
| NCI-H322M | 1.21 | 1.18 | 0.954 | 1.08 | 0.795 | 0.241 | 0.223 | 0.246 | 0.427 | 0.501 | 0.476 | 0.488 | 0.88 | 1.03 | 0.899 | 0.987 | 0.803 | 0.484 |
| NCI-H441 | 0.875 | 0.57 | 0.545 | 0.795 | 0.392 | 0.461 | 0.398 | 0.216 | 0.231 | 0.184 | 0.241 | 0.187 |  | 0.499 | 0.533 | 0.617 | 0.447 | 0.232 |
| NCI-H460 | 1.23 | 1.12 | 1.15 | 1.06 | 0.965 | 0.703 | 0.285 | 0.0445 |  | 0.146 | 0.147 | 0.143 |  | 1.15 | 1.02 | 1.17 | 0.502 | 0.118 |
| NCI-H520 | 1.04 |  | 1.03 | 0.987 | 0.316 | 0.17 | 0.196 | 0.139 | 0.193 | 0.266 | 0.259 | 0.213 | 0.552 | 0.97 | 0.923 | 1.11 | 0.735 | 0.231 |
| NCI-H647 | 1.2 | 1.01 | 1.11 | 1.09 | 0.844 | 0.0949 | 0.103 | 0.0648 | 0.376 | 0.407 | 0.378 | 0.442 |  | 1.17 | 1.16 | 1.25 | 0.976 | 0.372 |
| NCI-H727 | 0.377 | 0.413 | 0.417 | 0.304 | 0.269 | 0.383 | 0.273 | 0.232 | 0.508 | 0.594 | 0.658 | 0.673 | 0.328 | 0.321 | 0.228 | 0.396 | 0.298 | 0.64 |

— the supplement of paper PMC10307832
